# Results from patent US7741347B2, “Hepatitis C virus inhibitors” (Bristol-Myers Squibb Company, priority 2007, dated 2010).
# Where two headings read alike, the source gives them in different places.
# Test system: HCV 1b-377-neo replicon cells
# Test: HCV replicon assay, wild-type cells
# Format: cell-based
# Conditions: read-out: EC50 against the HCV 1b genotype (Activity)
# Procedure: An HCV Replion assay was utilized in the present disclosure, and was prepared, conducted and validated as described in commonly owned PCT/US2006/022197 and in O'Boyle et. al. Antimicrob Agents Chemother. 2005 April; 49(4): 1346-53.
# HCV 1b-377-neo replicon cells were used to test representative compounds described within this disclosure as were cells resistant to compound A due to a Y2065H mutation in NS5A (described in application PCT/US2006/022197). The compounds tested were determined to have an approximately 10-fold less inhibitory activity on cells resistant to compound A than wild-type cells indicating a related mechanism of action between the two compound series. Thus, the compounds can be effective to be effective to inhibit the function of the HCV NS5A protein and are understood to be as effective in combinations as previously described in application PCT/US2006/022197 and commonly owned WO/04014852. Further, the compounds are effective against the HCV 1b genotype. It should also be understood that the compounds of the present disclosure can inhibit multiple genotypes of HCV. […] Ranges are as follows: A=1-10 μM; B=100-999 nM; C=1-99 nM; and D=10-999 pM.
Compound,EC50,EC50 (Hepatitis C virus)
"COC(=O)NC(C(=O)N1CCCC1c1cc(-c2ccc(-c3ccc(-c4cc(C5CCCN5C(=O)C(NC(=O)OC)c5ccccc5)n[nH]4)cc3)cc2)[nH]n1)c1ccccc1 [Example 30, Dimethyl-(1R,1′R)-2,2′-((2S,2′S)-2,2′-(5,5′-(biphenyl-4,4′-diyl)bis(1H-pyrazole-5,3-diyl))bis(pyrrolidine-2,1-diyl))bis(2-oxo-1-phenylethane-2,1-diyl)dicarbamate]",1 to 99 nM,–
COC(=O)N[C@@H](C(=O)N1CCC[C@H]1c1ncc(-c2ccc(-c3ccc(-c4nnc([C@@H]5CCCN5C(=O)[C@H](NC(=O)OC)c5ccccc5)[nH]4)cc3)cc2)[nH]1)c1ccccc1 [Example 33],–,0.01 to 0.999 nM
COC(=O)N[C@@H](C(=O)N1CCC[C@H]1c1cc(-c2ccc(-c3ccc(-c4cnc([C@@H]5CCCN5C(=O)[C@H](NC(=O)OC)c5ccccc5)[nH]4)cc3)cc2)n[nH]1)c1ccccc1 [Example 31],–,0.01 to 0.999 nM
CN(C)[C@@H](C(=O)N1CCC[C@H]1c1cc(-c2ccc(-c3ccc(-c4cnc([C@@H]5CCCN5C(=O)[C@@H](c5ccccc5)N(C)C)[nH]4)cc3)cc2)n[nH]1)c1ccccc1 [Example 32],–,0.01 to 0.999 nM
CN(C)[C@@H](C(=O)N1CCC[C@H]1c1nnc(-c2ccc(-c3ccc(-c4nnc([C@@H]5CCCN5C(=O)[C@@H](c5ccccc5)N(C)C)[nH]4)cc3)cc2)[nH]1)c1ccccc1 [Example 35],–,1 to 99 nM
COC(=O)N[C@H](C(=O)N1CCC[C@H]1c1cnc(-c2ccc(-c3ccc(-c4cnc([C@@H]5CCCN5C(=O)[C@@H](NC(=O)OC)[C@@H](C)OC)o4)cc3)cc2)[nH]1)[C@@H](C)OC [Example 38],–,0.01 to 0.999 nM
COC(=O)N[C@@H](C(=O)N1CCC[C@H]1c1nnc(-c2ccc(-c3ccc(-c4nnc([C@@H]5CCCN5C(=O)[C@H](NC(=O)OC)c5ccccc5)[nH]4)cc3)cc2)[nH]1)c1ccccc1 [Example 34],–,0.01 to 0.999 nM
